Source: ChEMBL document CHEMBL5625206, “Design, synthesis, and evaluation of novel pleuromutilin aryl acrylate derivatives as promising broad-spectrum antibiotics especially for combatting multi-drug resistant gram-negative bacteria” (Eur J Med Chem, 2023)
≈ marks a conversion by molar mass, not a printed value.

Key:
Format in all cases: functional
[1] = tested on: Staphylococcus epidermidis; experiment: Antibacterial activity against Staphylococcus epidermidis ATCC 12228 assessed as bacterial growth inhibition incubated for 24 hrs by CLSI based broth microdilution method
[2] = tested on: Staphylococcus aureus; experiment: Antibacterial activity against Staphylococcus aureus ATCC 25923 assessed as bacterial growth inhibition incubated for 24 hrs by CLSI based broth microdilution method
[3] = tested on: Staphylococcus aureus; experiment: Antibacterial activity against Staphylococcus aureus ATCC 29213 assessed as bacterial growth inhibition incubated for 24 hrs by CLSI based broth microdilution method
[4] = tested on: Staphylococcus aureus; experiment: Antibacterial activity against methicillin-resistant Staphylococcus aureus ATCC 33591 assessed as bacterial growth inhibition incubated for 24 hrs by CLSI based broth microdilution method
[5] = tested on: Escherichia coli; experiment: Antibacterial activity against Escherichia coli ATCC 25922 assessed as bacterial growth inhibition incubated for 24 hrs by CLSI based broth microdilution method
[6] = tested on: Acinetobacter baumannii; experiment: Antibacterial activity against Acinetobacter baumannii ATCC 19606 assessed as bacterial growth inhibition incubated for 24 hrs by CLSI based broth microdilution method

SMILES	MIC [1] [µg/mL]	MIC [2] [µg/mL]	MIC [3] [µg/mL]	MIC [4] [µg/mL]	MIC [5] [µg/mL]	MIC [6] [µg/mL]
C=C[C@]1(C)C[C@@H](OC(=O)COC(=O)/C=C/c2ccc(F)c(Cl)c2)[C@]2(C)[C@H](C)CC[C@]3(CCC(=O)[C@H]32)[C@@H](C)[C@@H]1O	32 (≈ 57 µM)	16 (≈ 28.5 µM)	32 (≈ 57 µM)	64 (≈ 114 µM)	64 (≈ 114 µM)	> 128
C=C[C@]1(C)C[C@@H](OC(=O)COC(=O)/C=C/c2ccsc2)[C@]2(C)[C@H](C)CC[C@]3(CCC(=O)[C@H]32)[C@@H](C)[C@@H]1O	16 (≈ 31.1 µM)	32 (≈ 62.2 µM)	8 (≈ 15.5 µM)	64 (≈ 124 µM)	32 (≈ 62.2 µM)	32 (≈ 62.2 µM)
C=C[C@]1(C)C[C@@H](OC(=O)COC(=O)/C=C/c2ccccc2C(F)(F)F)[C@]2(C)[C@H](C)CC[C@]3(CCC(=O)[C@H]32)[C@@H](C)[C@@H]1O	64 (≈ 111 µM)	32 (≈ 55.5 µM)	64 (≈ 111 µM)	128 (≈ 222 µM)	> 128	> 128
C=C[C@]1(C)C[C@@H](OC(=O)COC(=O)/C=C/c2ccc(C#N)cc2)[C@]2(C)[C@H](C)CC[C@]3(CCC(=O)[C@H]32)[C@@H](C)[C@@H]1O	64 (≈ 120 µM)	32 (≈ 60 µM)	64 (≈ 120 µM)	64 (≈ 120 µM)	> 128	> 128
C=C[C@]1(C)C[C@@H](OC(=O)COC(=O)/C=C/c2cccc(Cl)c2)[C@]2(C)[C@H](C)CC[C@]3(CCC(=O)[C@H]32)[C@@H](C)[C@@H]1O	8 (≈ 14.7 µM)	16 (≈ 29.5 µM)	32 (≈ 58.9 µM)	32 (≈ 58.9 µM)	64 (≈ 118 µM)	128 (≈ 236 µM)
C=C[C@]1(C)C[C@@H](OC(=O)COC(=O)/C=C/c2ccccc2)[C@]2(C)[C@H](C)CC[C@]3(CCC(=O)[C@H]32)[C@@H](C)[C@@H]1O	16 (≈ 31.5 µM)	4 (≈ 7.86 µM)	16 (≈ 31.5 µM)	32 (≈ 62.9 µM)	128 (≈ 252 µM)	> 128
C=C[C@]1(C)C[C@@H](OC(=O)COC(=O)/C=C/c2ccco2)[C@]2(C)[C@H](C)CC[C@]3(CCC(=O)[C@H]32)[C@@H](C)[C@@H]1O	8 (≈ 16 µM)	64 (≈ 128 µM)	8 (≈ 16 µM)	32 (≈ 64.2 µM)	64 (≈ 128 µM)	64 (≈ 128 µM)
C=C[C@]1(C)C[C@@H](OC(=O)COC(=O)/C=C/c2ccc(OC)c(OC)c2)[C@]2(C)[C@H](C)CC[C@]3(CCC(=O)[C@H]32)[C@@H](C)[C@@H]1O	16 (≈ 28.1 µM)	4 (≈ 7.03 µM)	8 (≈ 14.1 µM)	32 (≈ 56.3 µM)	64 (≈ 113 µM)	> 128
C=C[C@]1(C)C[C@@H](OC(=O)COC(=O)/C=C/c2ccc(Cn3ccnc3)cc2)[C@]2(C)[C@H](C)CC[C@]3(CCC(=O)[C@H]32)[C@@H](C)[C@@H]1O	16 (≈ 27.2 µM)	8 (≈ 13.6 µM)	16 (≈ 27.2 µM)	32 (≈ 54.4 µM)	64 (≈ 109 µM)	128 (≈ 217 µM)
C=C[C@]1(C)C[C@@H](OC(=O)COC(=O)/C=C/c2ccc(C(F)(F)F)cc2F)[C@]2(C)[C@H](C)CC[C@]3(CCC(=O)[C@H]32)[C@@H](C)[C@@H]1O	16 (≈ 26.9 µM)	8 (≈ 13.5 µM)	16 (≈ 26.9 µM)	64 (≈ 108 µM)	128 (≈ 215 µM)	> 128
C=C[C@]1(C)C[C@@H](OC(=O)COC(=O)/C=C/c2ccc3ccccc3c2)[C@]2(C)[C@H](C)CC[C@]3(CCC(=O)[C@H]32)[C@@H](C)[C@@H]1O	32 (≈ 57.3 µM)	16 (≈ 28.6 µM)	32 (≈ 57.3 µM)	128 (≈ 229 µM)	> 128	> 128
C=C[C@]1(C)C[C@@H](OC(=O)COC(=O)/C=C/c2ccc(OCc3ccccc3)cc2)[C@]2(C)[C@H](C)CC[C@]3(CCC(=O)[C@H]32)[C@@H](C)[C@@H]1O	32 (≈ 52.1 µM)	16 (≈ 26 µM)	32 (≈ 52.1 µM)	128 (≈ 208 µM)	> 128	64 (≈ 104 µM)
C=C[C@]1(C)C[C@@H](OC(=O)COC(=O)/C=C/c2cccc(F)c2)[C@]2(C)[C@H](C)CC[C@]3(CCC(=O)[C@H]32)[C@@H](C)[C@@H]1O	32 (≈ 60.8 µM)	16 (≈ 30.4 µM)	32 (≈ 60.8 µM)	64 (≈ 122 µM)	> 128	> 128
C=C[C@]1(C)C[C@@H](OC(=O)COC(=O)/C=C/c2ccc(-c3ccccc3)cc2)[C@]2(C)[C@H](C)CC[C@]3(CCC(=O)[C@H]32)[C@@H](C)[C@@H]1O	32 (≈ 54.7 µM)	64 (≈ 109 µM)	32 (≈ 54.7 µM)	64 (≈ 109 µM)	> 128	> 128
C=C[C@]1(C)C[C@@H](OC(=O)COC(=O)/C=C/c2cccs2)[C@]2(C)[C@H](C)CC[C@]3(CCC(=O)[C@H]32)[C@@H](C)[C@@H]1O	16 (≈ 31.1 µM)	32 (≈ 62.2 µM)	16 (≈ 31.1 µM)	64 (≈ 124 µM)	32 (≈ 62.2 µM)	64 (≈ 124 µM)
C=C[C@]1(C)C[C@@H](OC(=O)COC(=O)/C=C/c2cccc(C(F)(F)F)c2)[C@]2(C)[C@H](C)CC[C@]3(CCC(=O)[C@H]32)[C@@H](C)[C@@H]1O	64 (≈ 111 µM)	32 (≈ 55.5 µM)	64 (≈ 111 µM)	256 (≈ 444 µM)	64 (≈ 111 µM)	128 (≈ 222 µM)
C=C[C@]1(C)C[C@@H](OC(=O)COC(=O)/C=C/c2ccc(C(F)(F)F)cc2)[C@]2(C)[C@H](C)CC[C@]3(CCC(=O)[C@H]32)[C@@H](C)[C@@H]1O	8 (≈ 13.9 µM)	16 (≈ 27.7 µM)	16 (≈ 27.7 µM)	128 (≈ 222 µM)	64 (≈ 111 µM)	> 128
C=C[C@]1(C)C[C@@H](OC(=O)COC(=O)/C=C/c2ccncc2)[C@]2(C)[C@H](C)CC[C@]3(CCC(=O)[C@H]32)[C@@H](C)[C@@H]1O	4 (≈ 7.85 µM)	8 (≈ 15.7 µM)	16 (≈ 31.4 µM)	32 (≈ 62.8 µM)	64 (≈ 126 µM)	64 (≈ 126 µM)
C=C[C@]1(C)C[C@@H](OC(=O)COC(=O)/C=C/c2ccc(OC)cc2)[C@]2(C)[C@H](C)CC[C@]3(CCC(=O)[C@H]32)[C@@H](C)[C@@H]1O	2 (≈ 3.71 µM)	4 (≈ 7.43 µM)	8 (≈ 14.9 µM)	16 (≈ 29.7 µM)	32 (≈ 59.4 µM)	> 128
C=C[C@]1(C)C[C@@H](OC(=O)COC(=O)/C=C/c2cc(Br)ccc2F)[C@]2(C)[C@H](C)CC[C@]3(CCC(=O)[C@H]32)[C@@H](C)[C@@H]1O	64 (≈ 106 µM)	16 (≈ 26.4 µM)	32 (≈ 52.8 µM)	64 (≈ 106 µM)	64 (≈ 106 µM)	128 (≈ 211 µM)
C=C[C@]1(C)C[C@@H](OC(=O)COC(=O)/C=C/c2ccc(F)cc2)[C@]2(C)[C@H](C)CC[C@]3(CCC(=O)[C@H]32)[C@@H](C)[C@@H]1O	32 (≈ 60.8 µM)	16 (≈ 30.4 µM)	32 (≈ 60.8 µM)	32 (≈ 60.8 µM)	128 (≈ 243 µM)	128 (≈ 243 µM)
C=C[C@]1(C)C[C@@H](OC(=O)COC(=O)/C=C/c2ccc(F)c(F)c2F)[C@]2(C)[C@H](C)CC[C@]3(CCC(=O)[C@H]32)[C@@H](C)[C@@H]1O	16 (≈ 28.4 µM)	32 (≈ 56.9 µM)	64 (≈ 114 µM)	128 (≈ 228 µM)	64 (≈ 114 µM)	128 (≈ 228 µM)
